Columns and labels:
Format in all cases: cell-based, human
MRC-5 cells = assay: MTT cytotoxicity assay, MRC-5 healthy control cells
Procedure: (§1) To examine and compare the antiproliferative activities of four enones, the cytotoxicity of the compounds was assessed by the 3-(4,5-dimethylthiazol-2-yl)-2,5-diphenyltetrazolium bromide (MTT) assay[9] in, colon cancer cells (HCT-116), cervical cancer cell line (HeLa) and human fibroblast lung cell line (MRC-5) that was used as a healthy control cell line. After trypsinization, seeded (5 × 10^3 cells per well in 96-well plates) cells were treated with different concentrations of the investigated enones (1, 3, 10, 30, and 100 μM) during 48 and 72 h period incubation period +37 °C and 5–6.5% CO2. After the incubation period, the medium was removed and MTT solution (5 mg ml^−1) was added to the wells.
(§2) After a 3 hour incubation with the MTT solution, the resulting formazan crystals were dissolved in DMSO (67-68-5, Merck). Absorbance was subsequently measured at 595 nm using a microplate reader (Zenith 3100, Anthos Labtech Instruments). The percentage of cytotoxic cells was determined using the formula: cytotoxicity (%) = (1 − (exp. group (ABS))/(control group (ABS)) × 100). IC50 values were calculated using GraphPad Prism 10 software. The selectivity index (SI) was determined using the formula: SI?IC50 value for healthy cells/IC50 value for tumor cells.[9]

HCT-116 cells [1] = assay: MTT cytotoxicity assay, HCT-116; details: for IC50: MTT; for percentage of cytotoxic HCT-116 cells compared to HeLa cells (fold) / percentage of cytotoxic HCT-116 cells compared to control MRC-5 cells (fold): 48 h, over the applied doses; for Cytotoxicity range: concentration range 1–100 μM; for Selectivity index (SI): IC50 healthy cells (MRC-5)/IC50 tumor cells
Procedure: as §1, §2

HeLa cells [2] = assay: MTT cytotoxicity assay, HeLa; details: for IC50: MTT; for Selectivity index (SI): IC50 healthy cells (MRC-5)/IC50 tumor cells; for Cytotoxicity range: concentration range 1–100 μM
Procedure: as §1, §2

HeLa cells [3] = assay: Annexin V-FITC/7-AAD apoptosis flow cytometry, HeLa; details: IC50 concentration, 48 h
Procedure: (§3) The type of cell death was assessed using flow cytometry using FITC Annexin V Apoptosis Detection Kit with 7-AAD (640922, Bio legend).[8] […] After treatment, cells were harvested, washed with PBS (resuspended in 100 μl of ice-cold 1X binding buffer), stained (20 μl of 7-AAD and 10 μl of Annexin V-FITC), and incubated in the dark for 15 min at +4 °C. After incubation, 400 μl of binding buffer was added and the samples were analyzed using flow cytometer Cytomics FC500 (Beckman Coulter, USA). Data analysis was performed using FlowJo Software and presented with histogram and dot plots.

[4] = test system: Bax and Bcl-2 in HeLa cells; assay: Flow cytometric analysis of Bax and Bcl-2 expression, HeLa; details: IC50 concentration, 48 h; for Bax/Bcl-2 ratio: from MFI; for Bcl-2 protein expression vs control cells: p < 0.05
Procedure: (§4) Cells were washed with PBS, fixed, permeabilized using Fixation and Permeabilization Kit (eBioscience), and stained separately for Bcl-2, Bax, and cleaved-caspase-3.[8,9] Permeabilized cells were incubated with primary antibodies: mouse anti-human-Bcl-2 (DC21, sc-783, Santa Cruz Biotech. Inc.), mouse anti-human Bax (N20, sc-493, Santa Cruz Biotech. Inc.), and anti-cleaved caspase-3 (Cell signaling Technology 9661). Following antibody incubation, cells were washed and incubated with secondary Alexa 488-conjugated antibodies (ab185015, Abcam, United Kingdom) for 30 minutes. After an additional wash with PBS, flow cytometry analysis was performed.
(§5) Data were analyzed using FlowJo Software. The expression of Bcl-2 and Bax proteins was quantified as mean fluorescence intensity (MFI). The results were presented with bar graphs. Bax/Bcl-2 index was calculated using the formula […]. The percentage of cells expressing active caspase-3 (MFI) was presented in histograms.

[5] = test system: cytochrome c in HCT-116 cells; assay: Cytochrome c localization by immunofluorescence, HCT-116; details: IC50 concentration, 48 h
Procedure: After 48 hours of treatment, immunofluorescence analysis of cytochrome c distribution and expression in treated cells was performed using glass coverslips.[10] Following the treatment, cells were washed with PBS, fixed in 4% formaldehyde for 20 min, and permeabilized with 0.2% Tween-20. Blocking was performed using a buffer containing 0.1% Tween-20 and 10% FBS for 30 min. The cells were then incubated for 1 hour at room temperature with a monoclonal mouse anti-human cytochrome c antibody (1:100, G7421, Promega, USA,)
Subsequently, the cells were incubated for 30 minutes with a goat anti-mouse FITC (1:200, diluted in blocking buffer), washed, and images were acquired using an inverted fluorescence microscope (Olympus IX50). Image analysis was performed using ImageJ software.

[6] = test system: active caspase-3 in HeLa cells; assay: Flow cytometric analysis of active caspase-3, HeLa; details: IC50 concentration, 48 h, vs control
Procedure: as §4, §5

HCT-116 cells [7] = assay: Annexin V-FITC/7-AAD apoptosis flow cytometry, HCT-116; details: IC50 concentration, 48 h
Procedure: as §3

[8] = test system: mitochondrial membrane potential (ΔΨm) in HCT-116 cells; assay: Mitochondrial membrane potential (ΔΨm) JC-10 analysis, HCT-116; details: IC50 concentration, 48 h
Procedure: (§6) Changes in the ΔΨm caused by 48 hours of enones treatment, were assessed using JC-10 dye.[10]. (Enzo Life Sciences, Farmingdale, NY, USA).
(§7) In healthy cells, JC-10 dye accumulates in the mitochondria as red fluorescent aggregates. However, upon cell damage, changes in ΔΨm occur and result in dislocation of JC-10 from the mitochondria to the cytosol and the monomerization of aggregates, shifting fluorescence from red to green. Cells were cultured in 24-well plate (3 × 10^4 cells per well) overnight in the incubator (5% CO2, 37 °C). […] Following treatment, cells were washed with warm 1xPBS and incubated with JC-10 dye (2.5 μM in warm PBS) at 5% CO2, 37 °C for 20 minutes. Cells were then washed with 1xPBS and observed using an Olympus IX50 inverted fluorescence microscope. Images were captured and analyzed using ImageJ software. The ratio of fluorescence emissions at 525 and 590 nm was used for quantification analysis.

HeLa cells [9] = assay: Cell cycle analysis (PI, flow cytometry), HeLa; details: IC50 concentration, 48 h; control 29.9%
Procedure: (§8) After treatment of HCT-116 and HeLa cells with enones, cells were harvested, washed with PBS, and fixed in 70% ice-cold ethanol at +4 °C overnight.[10] The cells were then pelleted, resuspended in 1 ml PBS containing RNAse A (12091021, Sigma Aldrich), and incubated for 30 min at 37 °C. A staining solution containing propidium iodide (1 mg PI per ml PBS) (B7758, Biotrend) was added to cells, followed by 15 min incubation in the dark. Cells were analyzed by flow cytometer Cytomics FC500. DNA content was determined using Flowing Software and cell cycle distribution was presented by graph (histograms).

[10] = test system: Bax and Bcl-2 in HCT-116 cells; assay: Flow cytometric analysis of Bax and Bcl-2 expression, HCT-116; details: HCT-116, IC50 concentration, 48 h, from MFI
Procedure: as §4, §5

[11] = test system: mitochondrial membrane potential (ΔΨm) in HeLa cells; assay: Mitochondrial membrane potential (ΔΨm) JC-10 analysis, HeLa; details: IC50 concentration, 48 h
Procedure: as §6, §7

HCT-116 cells [12] = assay: Cell cycle analysis (PI, flow cytometry), HCT-116; details: IC50 concentration, 48 h; control 27.4%
Procedure: as §8

[13] = test system: active caspase-3 in HCT-116 cells; assay: Flow cytometric analysis of active caspase-3, HCT-116; details: IC50 concentration, 48 h, vs control
Procedure: as §4, §5

[14] = Homo sapiens, MRC5, MRC-5, 48 h
[15] = Homo sapiens, MRC5, MRC-5, 72 h

Structure (SMILES)	total percentage of apoptotic HeLa cells (HeLa cells [3]) [%]	Bax/Bcl-2 ratio [4]	RELATIVE RATIO OF CYTOSOL CYTC TO MITOCHONDRIAL CYT C IN HCT-116 CELLS [5]	IC50 (MRC-5 cells; [14]) [µM]	IC50 (MRC-5 cells; [15]) [µM]	increase of percentage of apoptotic HCT-116 cells compared to control HCT-116 cells (HCT-116 cells [7]) [fold]	percentage of total apoptotic HCT-116 cells (sum of early and late) (HCT-116 cells [7]) [%]	JC10-green/JC10 red ratio in HCT-116 cells [8]	% OF HELA CELLS, G2/M (HeLa cells [9]) [%]	percentage of cytotoxic HCT-116 cells compared to HeLa cells (fold) (HCT-116 cells [1])	percentage of cytotoxic HCT-116 cells compared to control MRC-5 cells (fold) (HCT-116 cells [1])	Cytotoxicity range (HCT-116 cells [1]; HCT-116, 48 h)	Selectivity index (SI) (HCT-116 cells [1]; HCT-116, 48 h)	Cytotoxicity range (HCT-116 cells [1]; HCT-116, 72 h)	Selectivity index (SI) (HCT-116 cells [1]; HCT-116, 72 h)	IC50 (HCT-116 cells [1]; Homo sapiens, HCT-116, 48 h) [µM]	IC50 (HCT-116 cells [1]; Homo sapiens, HCT-116, 72 h) [µM]	Bax/Bcl-2 ratio [10]	JC10-green/JC10 red ratio in HeLa cells [11]	% OF HCT-116 CELLS, G2/M (HCT-116 cells [12]) [%]	further results
N.N.[Cl][Pt][Cl] [CP, Cisplatin, reference compound]	42.38	–	–	–	–	–	–	–	–	–	–	–	–	–	–	–	–	–	–	–	IC50 (MRC-5 cells; MRC-5, 48 h): > 30 µM; IC50 (MRC-5 cells; MRC-5, 72 h): > 85 µM; IC50 (HCT-116 cells [1]; HCT-116, 48 h): 13.6 µM; IC50 (HCT-116 cells [1]; HCT-116, 72 h): 7.08 ± 0.13 µM; IC50 (HeLa cells [2]; 48 h): 16.5 µM; IC50 (HeLa cells [2]; 72 h): 3.62 ± 0.09 µM
COc1cc(/C=C/C(C)=O)ccc1OCC(=O)O [E1, (E)-2-(2-Methoxy-4-(3-oxobut-1-en-1-yl)phenoxy)acetic acid]	43.03	1.1	1.2	> 150	> 65	8.5	59.5	1.6	66.9	1.8–3.6 fold	4.1–4.4 fold	11.23–72.91%	24.75	65.85–73.44%	58.03	6.06 ± 0.96	1.12 ± 0.01	1.8	1.4	50.4	Bcl-2 protein expression vs control cells [4]: decreased; MFI of active caspase-3 in HeLa (fold change) [6]: 1.9 fold change; MFI of active caspase-3 in HCT-116 (fold change) [13]: 2.1 fold change; Selectivity index (SI) (HeLa cells [2]; 48 h): 8.67; Cytotoxicity range (HeLa cells [2]; 48 h): 3.12–39.24%; Cytotoxicity range (HeLa cells [2]; 72 h): 39.35–61%; IC50 (HeLa cells [2]; Homo sapiens, 48 h): 17.3 ± 1.19 µM; IC50 (HeLa cells [2]; Homo sapiens, 72 h): 3.59 ± 0.03 µM
COc1cc(/C=C/C(=O)C(C)C)ccc1OCC(=O)O [E2, (E)-2-(2-Methoxy-4-(4-methyl-3-oxopent-1-en-1-yl)phenoxy)acetic acid]	54.02	1.4	1.5	> 200	> 90	8.8	61.6	2.15	66	1.3–2.3 fold	2.9–5.2 fold	10.87–71.88%	39.22	65.23–72.73%	100.63	5.1 ± 0.92	0.9 ± 0.02	1.9	1.9	56.1	Bcl-2 protein expression vs control cells [4]: decreased; MFI of active caspase-3 in HeLa (fold change) [6]: 2 fold change; MFI of active caspase-3 in HCT-116 (fold change) [13]: 2.4 fold change; Selectivity index (SI) (HeLa cells [2]; 48 h): 14.96; Cytotoxicity range (HeLa cells [2]; 48 h): 4.74–51.94%; Selectivity index (SI) (HeLa cells [2]; 72 h): 26.23; Cytotoxicity range (HeLa cells [2]; 72 h): 32.98–71.66%; IC50 (HeLa cells [2]; Homo sapiens, 48 h): 13.4 ± 1.43 µM; IC50 (HeLa cells [2]; Homo sapiens, 72 h): 3.43 ± 0.09 µM
COc1cc(/C=C/C(=O)CC(C)C)ccc1OCC(=O)O [E3, (E)-2-(2-Methoxy-4-(5-methyl-3-oxohex-1-en-1-yl)phenoxy)acetic acid]	35.63	0.9	1.1	> 100	> 70	7.4	51.68	1.4	58.3	2.05–2.1 fold	4.4–6.9 fold	11.23–75.08%	14.71	66.85–70.44%	42.68	6.8 ± 1.01	1.64 ± 0.01	1.6	1.3	54.1	Selectivity index (SI) (HeLa cells [2]; 48 h): 5.50; Cytotoxicity range (HeLa cells [2]; 48 h): 5.47–33.95%; Selectivity index (SI) (HeLa cells [2]; 72 h): 17.67; Cytotoxicity range (HeLa cells [2]; 72 h): 40.39–59.92%; IC50 (HeLa cells [2]; Homo sapiens, 48 h): 18.2 ± 1.33 µM; IC50 (HeLa cells [2]; Homo sapiens, 72 h): 3.96 ± 0.1 µM

Reference: publication PMC11505670, “Four newly synthesized enones induce mitochondrial-mediated apoptosis and G2/M cell cycle arrest in colorectal and cervical cancer cells” (RSC Advances, 2024)
